“Also recorded” adds a separate entry of the source. Where no end group is shown, it is not given here.
How the values were obtained:
[1] = tested on: Cardiac myocytes from embryonic chick hearts; assay: Amelioration of ammonium persulfate-induced cell death in cultured cardiac myocytes (Trypan blue exclusion); assay type: cell-based; settings: 1 mM ammonium persulfate
Protocol: Cardiac myocytes from embryonic chick hearts were grown in culture using the procedures described in Rabkin, Exper. Cell. Res. 188:262-266, 1990. Briefly, white Leghorn eggs were incubated in an automatic incubator (March Rollex, Calif., USA) for 7 days at 37.8° C. and 87% humidity. Hearts were then isolated under sterile conditions from the 7-day chick embryo. Blood and connective tissue were removed under a dissecting microscope in a solution of balanced salts (DMS8) with the following composition (mM): NaCl 116, KCl 5.4, NaH2PO4 1 and dextrose 5.6. Disaggregation was carried out by 5-minute digestions in 0.005% trypsin (Gibco Laboratories, Burlington, Ontario), 0.1% BSA and 1×10^7 DNAse per mL, DMS8 (Worthington Biochemicals, Frederic, N.J., USA) at 37° C. After three digestions, the digests were diluted 1:5 in culture medium and the cells centrifuged for three minutes at 1000 g and plated.
The cultured cardiac myocytes were incubated with 1 mM ammonium persulfate for 2 hours at 37° C. to induce oxidative damage. Cell viability was assessed by Trypan blue exclusion. Six samples containing cells were then incubated with 0.0, 0.000375, 0.00375, 0.0375, 0.375 and 37.5 μM streptokinase (Hoechts-Roussel Pharmaceuticals), respectively, and 0.0, 0.000246, 0.00246, 0.0246, 0.246 and 24.6 μM plasminogen, respectively (see Table 1), for 1-2 hours at 37° C. and assessed by Trypan blue exclusion.
Control cell samples were treated with 1 mM ammonium persulfate in the absence of streptokinase (STK) and plasminogen under the same conditions.
The results are described in Table 1 in terms of the percent cell death induced by ammonium persulfate. The data represents the mean of six (6) duplicate determinations, none of which differed by more than 5%.
Each of the nineteen (19) resulting fractions was tested for the peptide's ability to ameliorate cell death according to the assay described in Example 1. The data in Table 2 represent the mean of duplicate determinations. None of the determinations differed by more than 5%.
Based on the sequences identified in Example 2, peptides were synthesized using a commercially available automated synthesizer (Applied Biosystems 430 A Peptide Synthesizer), purified by and tested according to the assay described in Example 1 for their ability to ameliorate cell death in cardiac myocytes. The sequences for these peptides were:
Table 3 presents the percentage of dead cells as measured by Trypan blue assessment as described in Example 1.

[2] = tested on: Spinal cord cells isolated from embryonic chicks; assay: Amelioration of ammonium persulfate-induced cell death in spinal cord cells (trypan blue); assay type: cell-based, chick; settings: 1 mM ammonium persulfate for 1 or 2 hours; 10 μg/ml or 20 μg/ml peptide; versus control
Protocol: Spinal cord cells isolated from embryonic chicks were grown in culture for 5-7 days. Chick spinal cord cells were cultured as described briefly as follows. Cell cultures were prepared from 7-day chick embryo. Ventral portions of spinal cord were dissected free of meninges and dorsal root ganglia and diced into small pieces in Dulbecco's phosphate-buffered saline (PBS). Tissue fragments were incubated in PBS with 0.25% trypsin and 20 μg/ml DNase for 30 min at 36° C. Trypsin was inactivated by the addition of horse serum and cells were dissociated by gentle pipetting.
Isolated cells were washed, resuspended in medium and plated onto plastic coverslips in petri dishes. The medium consisted of Eagle's minimum essential medium (MEM), 10% fetal bovine serum (FBS), 5 mg/ml D-glucose and 25 μg/ml gentamycin. Cells were grown in an incubator with 5% CO2/95% air at 37° C. and the medium was renewed twice a week. Cells were used for experiment after 14 days.
Both the experimental and control cultures were treated with 1 mM ammonium persulfate for 1 or 2 hours at 37° C. The experimental cultures were treated with either 10 μg/ml or 20 μg/ml of the 20 mer peptide (SEQ ID NO: 6) for the same length of time. The number of dead cells, assayed by trypan blue, in the experimental groups was compared to that in the control group.

M07E = assay: Serum-deprivation-induced cell death, 3H-thymidine incorporation, M07E; assay type: cell-based, human; settings: M07E starved 30 hours, 20 μg/ml, then washed, IL-3 for 22 hours; control 2,003 ± 468
Protocol: (§1) Cells in the latter group were washed free of the 20 mer (SEQ. ID NO. 6), given saturating concentrations of growth factor (5 ng/ml of human interleukin-3) and incubated for an additional 22 hours. After the 22 hours, 1 μCi of ^3H-thymidine (2 Ci/mmol) was added and, after 2 hours, the cellular contents were harvested onto filtermats. Then ^3H-thymidine incorporation was measured using an LKB Betaplate Harvester and liquid scintillation counter. Note the increased viability of cells treated with the 20 mer peptide (SEQ ID NO: 6).

TF-1 = assay: Serum-deprivation-induced cell death, 3H-thymidine incorporation, TF-1; assay type: cell-based, human; settings: TF-1 starved 30 hours, 20 μg/ml, then washed, IL-3 for 22 hours; control 14,728 ± 2,825
Protocol: as §1

[3] = reverse phase HPLC fractions of streptokinase incubated 1:1 with plasminogen

| Substance | percentage of dead cells ([1]; Peptide Concentration 5 μM) | percentage of dead cells ([1]; Peptide Concentration 20 μM) | other results |
| --- | --- | --- | --- |
| EVTEEEETVPLKThE-AMIDE [Irrelevant #3, reference compound] | 79.5% | 81.1% | – |
| NFLRGKLKLYTGEACRTGDR [Irrelevant #1, irrelevant peptide utilized as negative control, reference compound] | 77.1% | 67.6% | – |
| RLILDSRVLERYLLEAKEAE [Irrelevant #2, irrelevant peptide utilized as negative control, reference compound] | 77.4% | 76.1% | – |
| SVDVEY [6 mer #1] | 51.9% | 36.8% | – |
| SVDVEYTQFTDFRGKLTKLL [20 mer] | 47.6% | 23.1% | percentage of dead cells ([1]; Peptide Concentration 10 μM): 35.4%; percentage of dead cells ([1]; Peptide Concentration 15 μM): 31.6%; percentage of dead cells ([1]; Peptide Concentration 20 μM, listed as 20mer): ~20%; survival of spinal cord cells (number of dead cells, trypan blue) [2]: dramatically enhanced cell survival; also recorded: almost completely prevented cell death; 3H-THYMIDINE COUNTS (COUNTS PER MINUTE) (M07E): 4,282 ± 212 COUNTS PER MINUTE; 3H-THYMIDINE COUNTS (COUNTS PER MINUTE) (TF-1): 32,701 ± 5,565 COUNTS PER MINUTE |
| SVDVEYTVQFTPLNPDDD [18 mer] | – | 54.4% | – |
| SVDVEYTVQFTPLNPDDDFRP [fraction 13] | – | – | Cell Death (%) [1, 3]: 39% |
| Streptokinase [reference compound] | – | – | Cell Death (%) ([1]; 0.000375 μM streptokinase with 0.000246 μM plasminogen, control 81): 50%; Cell Death (%) ([1]; 0.00375 μM streptokinase with 0.00246 μM plasminogen, control 81): 37%; Cell Death (%) ([1]; 0.0375 μM streptokinase with 0.0246 μM plasminogen, control 81): 29%; Cell Death (%) ([1]; 0.375 μM streptokinase with 0.246 μM plasminogen, control 81): 25%; Cell Death (%) ([1]; 37.5 μM streptokinase with 24.6 μM plasminogen, control 81): 16% |
| YVDVDT [6 mer #2] | 37.0% | 25.4% | – |
| YVDVDTNELLK [11 mer] | 38.6% | – | – |
| YVDVDTNELLKSEQLLTASE [fraction 12] | – | – | Cell Death (%) [1, 3]: 29% |

From patent US6841532B2, “Peptides and their use to ameliorate cell death” (priority 1995, dated 2005)
